Nine compounds from ChEMBL document CHEMBL4387773, “Identification of potent, selective and orally bioavailable phenyl ((R)-3-phenylpyrrolidin-3-yl)sulfone analogues as RORγt inverse agonists” (Bioorg Med Chem Lett, 2019) can be followed below.

A short description of data set [1]: Stability in human liver microsomes assessed as parent compound remaining after 10 mins. Type of data set: ADME, Microsome. The note with it: for remaining at 10 min: liver microsomes, read-out: Stability; for Stability: microsomes, 10 min. Background: Liver microsomes are vesicles of endoplasmic reticulum, rich in cytochrome P450 enzymes.
Data set [2] deals with T1, Oxysterols receptor LXR-beta (Homo sapiens, UniProt P55055).
T1 sequence (P55055 whole entry): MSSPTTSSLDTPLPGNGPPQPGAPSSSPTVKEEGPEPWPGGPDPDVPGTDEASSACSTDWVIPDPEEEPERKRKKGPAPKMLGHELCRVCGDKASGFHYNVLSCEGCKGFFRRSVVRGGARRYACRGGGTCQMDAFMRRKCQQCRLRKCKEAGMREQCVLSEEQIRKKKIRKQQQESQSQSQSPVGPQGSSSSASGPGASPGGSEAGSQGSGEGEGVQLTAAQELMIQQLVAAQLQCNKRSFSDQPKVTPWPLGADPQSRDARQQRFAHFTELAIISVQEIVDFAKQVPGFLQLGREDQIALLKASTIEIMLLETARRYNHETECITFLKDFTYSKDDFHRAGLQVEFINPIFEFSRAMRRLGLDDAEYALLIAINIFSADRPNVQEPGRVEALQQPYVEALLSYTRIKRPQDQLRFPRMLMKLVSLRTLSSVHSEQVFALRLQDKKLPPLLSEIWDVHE
Put plainly: Transactivation of human GAL4-fused LXRbeta expressed in African green monkey CV1 cells. It is filed as cell-based.

The target in data set [3] is T2, Nuclear receptor ROR-beta (Homo sapiens, UniProt Q92753).
T2 sequence (Q92753 whole entry): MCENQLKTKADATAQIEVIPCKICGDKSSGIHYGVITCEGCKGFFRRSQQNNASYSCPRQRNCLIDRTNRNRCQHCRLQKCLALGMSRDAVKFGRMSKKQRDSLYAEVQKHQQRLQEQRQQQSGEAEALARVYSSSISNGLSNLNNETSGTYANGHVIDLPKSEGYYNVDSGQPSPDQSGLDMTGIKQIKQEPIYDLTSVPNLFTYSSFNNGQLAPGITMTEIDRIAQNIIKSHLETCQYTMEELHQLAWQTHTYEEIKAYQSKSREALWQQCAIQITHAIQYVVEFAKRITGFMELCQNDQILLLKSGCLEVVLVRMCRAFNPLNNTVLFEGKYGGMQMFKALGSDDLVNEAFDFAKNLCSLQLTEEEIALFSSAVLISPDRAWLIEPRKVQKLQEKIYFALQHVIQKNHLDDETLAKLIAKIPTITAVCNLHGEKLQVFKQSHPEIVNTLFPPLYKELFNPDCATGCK
Put plainly: Inverse agonist activity at human Gal4-fused RORbeta LBD (200 to 559 residues) expressed in human Jurkat cells measured after 18 hrs by steady-glo luciferase reporter gene assay. Type of data set: cell-based. In general terms: Reporter assays use an easily measured gene product as a stand-in for the process of interest.

The target in data set [4] is T3, Nuclear receptor subfamily 1 group I member 2 (Homo sapiens, UniProt O75469).
T3 sequence (O75469 whole entry): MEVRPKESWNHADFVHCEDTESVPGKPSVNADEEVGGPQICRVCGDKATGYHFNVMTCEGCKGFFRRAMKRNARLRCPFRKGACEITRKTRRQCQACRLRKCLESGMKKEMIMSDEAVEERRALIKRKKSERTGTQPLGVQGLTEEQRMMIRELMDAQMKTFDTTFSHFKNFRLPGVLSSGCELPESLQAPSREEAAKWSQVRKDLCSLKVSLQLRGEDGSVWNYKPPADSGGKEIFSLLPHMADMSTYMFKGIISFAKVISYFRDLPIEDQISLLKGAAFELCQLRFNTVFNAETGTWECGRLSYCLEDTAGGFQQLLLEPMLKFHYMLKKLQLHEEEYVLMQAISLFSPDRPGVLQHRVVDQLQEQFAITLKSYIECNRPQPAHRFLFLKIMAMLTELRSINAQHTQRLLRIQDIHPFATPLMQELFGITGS
Put plainly: Transactivation of PXR (unknown origin) expressed in human HepG2 cells. Type of data set: cell-based.

In data set [5] the target is T4, Nuclear receptor ROR-alpha (Homo sapiens, UniProt P35398).
T4 sequence (P35398 whole entry): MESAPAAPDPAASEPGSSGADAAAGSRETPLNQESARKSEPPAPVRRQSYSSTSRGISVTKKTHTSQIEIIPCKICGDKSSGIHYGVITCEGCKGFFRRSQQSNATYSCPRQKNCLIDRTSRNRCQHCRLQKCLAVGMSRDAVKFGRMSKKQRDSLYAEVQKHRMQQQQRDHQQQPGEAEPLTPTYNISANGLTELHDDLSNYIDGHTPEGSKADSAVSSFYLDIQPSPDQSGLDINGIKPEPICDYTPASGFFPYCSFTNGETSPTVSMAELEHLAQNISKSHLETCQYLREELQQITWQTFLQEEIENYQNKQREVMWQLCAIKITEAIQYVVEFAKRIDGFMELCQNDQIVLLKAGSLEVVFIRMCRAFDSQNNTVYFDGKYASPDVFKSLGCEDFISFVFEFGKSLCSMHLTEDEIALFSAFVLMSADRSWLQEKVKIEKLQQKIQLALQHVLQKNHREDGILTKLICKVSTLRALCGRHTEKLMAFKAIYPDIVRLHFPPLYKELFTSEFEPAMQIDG
Put plainly: Inverse agonist activity at human Gal4-fused RORalpha LBD (272 to 556 residues) expressed in human Jurkat cells measured after 18 hrs by steady-glo luciferase reporter gene assay. Type of data set: cell-based.

Data set [6] concerns the target T5, Oxysterols receptor LXR-alpha (Homo sapiens, UniProt Q13133).
T5 sequence (Q13133 whole entry): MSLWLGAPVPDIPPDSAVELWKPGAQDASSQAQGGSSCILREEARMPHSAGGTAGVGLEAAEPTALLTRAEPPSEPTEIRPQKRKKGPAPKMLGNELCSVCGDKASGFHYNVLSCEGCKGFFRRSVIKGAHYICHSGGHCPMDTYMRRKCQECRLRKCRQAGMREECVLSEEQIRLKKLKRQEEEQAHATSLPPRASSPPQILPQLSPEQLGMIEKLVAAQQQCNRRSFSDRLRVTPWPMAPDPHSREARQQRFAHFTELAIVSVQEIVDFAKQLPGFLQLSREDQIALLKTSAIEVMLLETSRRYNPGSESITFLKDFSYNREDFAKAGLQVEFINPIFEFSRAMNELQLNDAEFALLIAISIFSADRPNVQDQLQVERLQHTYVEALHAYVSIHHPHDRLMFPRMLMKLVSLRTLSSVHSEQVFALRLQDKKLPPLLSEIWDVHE
Put plainly: Transactivation of human GAL4-fused LXRalpha expressed in African green monkey CV1 cells. It is filed as cell-based.

Data set [7] deals with T6, Nuclear receptor ROR-gamma (Homo sapiens, UniProt P51449).
T6 sequence (P51449 whole entry): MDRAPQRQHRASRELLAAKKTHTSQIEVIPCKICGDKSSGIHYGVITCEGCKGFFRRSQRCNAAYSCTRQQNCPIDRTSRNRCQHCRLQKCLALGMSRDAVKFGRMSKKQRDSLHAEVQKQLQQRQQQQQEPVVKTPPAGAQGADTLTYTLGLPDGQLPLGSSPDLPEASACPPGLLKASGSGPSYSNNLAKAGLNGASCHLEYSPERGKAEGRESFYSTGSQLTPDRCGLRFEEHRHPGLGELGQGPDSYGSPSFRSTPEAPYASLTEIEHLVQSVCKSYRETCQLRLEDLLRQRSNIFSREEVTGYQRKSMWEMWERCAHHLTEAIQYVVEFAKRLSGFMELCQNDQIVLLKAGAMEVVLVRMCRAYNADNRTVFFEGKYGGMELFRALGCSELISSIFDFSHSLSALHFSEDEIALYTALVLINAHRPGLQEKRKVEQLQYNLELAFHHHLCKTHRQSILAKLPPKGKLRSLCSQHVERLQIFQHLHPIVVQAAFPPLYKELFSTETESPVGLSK
Put plainly: Inverse agonist activity at human Gal4-fused RORgammat LBD (267 to 516 residues) expressed in human Jurkat cells measured after 18 hrs by steady-glo luciferase reporter gene assay. It is filed as cell-based.

A short description of data set [8]: Stability in mouse liver microsomes assessed as parent compound remaining after 10 mins. It is filed as ADME, Microsome. The note with it: for remaining at 10 min: liver microsomes, read-out: Stability; for Stability: microsomes, 10 min.
Data set [9] concerns the target T7, PXR (Homo sapiens, UniProt O75469).
T7 sequence (O75469 whole entry): T3 sequence (O75469 whole entry)
Put plainly: (§1) Transactivation of PXR (unknown origin) expressed in human HepG2 cells assessed as maximum receptor activation response relative to control. It is filed as cell-based. The note with it: human HepG2 cells that express PXR, read-out: %max.

Data set [10] deals with T3, Nuclear receptor subfamily 1 group I member 2. Described as §1. The note with it: hepg2. It is filed as cell-based.

pEC50: −log10 of the molar value. Bounds are passed on as bounds.

With `C[C@]1(C(=O)N2CC[C@](c3ccc(C(F)(C(F)(F)F)C(F)(F)F)cc3)(S(=O)(=O)c3ccc(F)cc3)C2)CC[C@H](C(=O)O)CC1`, the remaining at 10 min in [1] came out at 80%; in data set [8], 95%. Moreover, the pEC50 in [2] was less than 5.12; in data set [3], less than 4.40; in [4], less than 4.30; in [5] it was less than 4.40; in [6], less than 5.12; in [7], 7.25. Moreover, the Emax in data set [9] came to 7%.
As for `C[C@]1(C(=O)N2CC[C@](c3ccc(C(F)(C(F)(F)F)C(F)(F)F)cc3)(S(=O)(=O)c3ccc(F)cc3)C2)CC[C@@H](C(=O)O)CC1`, the remaining at 10 min in data set [1] amounted to 85%; in data set [8], 100%. For the same compound, the pEC50 in data set [2] is less than 5.12; in [3] it was less than 4.40; in data set [4], less than 4.30; in data set [5], less than 4.40; in data set [6], less than 5.12; in data set [7], 6.11. Moreover, the Emax in data set [9] came out at 18%.
Consider `O=C(O)C1CCC(O)(C(=O)N2CC[C@](c3ccc(C(F)(C(F)(F)F)C(F)(F)F)cc3)(S(=O)(=O)c3ccc(F)cc3)C2)CC1` (stereo in doubt; 12), for which the remaining at 10 min in [1] was 100%; in data set [8] it was 99%. Also, the pEC50 is less than 5.12 in [2]; less than 4.40 in data set [3]; less than 4.30 in data set [4]; less than 4.40 in [5]; less than 5.12 in data set [6]. The “%max” value in [10] is given as 9%.
With `O=C(O)C1CCC(O)(C(=O)N2CC[C@](c3ccc(C(F)(C(F)(F)F)C(F)(F)F)cc3)(S(=O)(=O)c3ccc(F)cc3)C2)CC1` (stereo in doubt; 13), the Stability in data set [1] was determined as 95%; in data set [8] it was 98%. In addition, the pEC50 is less than 5.12 in [2]; less than 4.40 in [3] (jurkat); less than 4.30 in data set [4] (hepg2); less than 4.40 in data set [5] (jurkat); less than 5.12 in data set [6]. Moreover, the “%max” value in data set [10] is given as 19%.
In the case of `O=C1NC(=O)C2(CCC(C(=O)N3CC[C@](c4ccc(C(F)(C(F)(F)F)C(F)(F)F)cc4)(S(=O)(=O)c4ccc(F)cc4)C3)CC2)N1` (stereo in doubt; 24), the remaining at 10 min in data set [1] was found to be 84%; in [8] it was 81%. The pEC50 in [2] was less than 5.12; in data set [3], less than 4.40; in [4], less than 4.85; in [5] it was less than 4.40; in [6] it was less than 5.12. Besides, the “%max” value in [10] is 28%.
As for `O=C1NC(=O)C2(CCC(C(=O)N3CC[C@](c4ccc(C(F)(C(F)(F)F)C(F)(F)F)cc4)(S(=O)(=O)c4ccc(F)cc4)C3)CC2)N1` (stereo in doubt; 25), the figures for the Stability in data set [1] and in data set [8] were 93% and 82%, respectively. The negative logarithm of the EC50 (pEC50) is less than 5.12 in [2]; less than 4.40 in data set [3] (jurkat); less than 4.30 in [4]; less than 4.40 in [5] (jurkat); less than 5.12 in data set [6]. The “%max” value in [10] is listed as 3%.
Consider `CS(=O)(=O)C1CCC(C(=O)N2CC[C@](c3ccc(C(F)(C(F)(F)F)C(F)(F)F)cc3)(S(=O)(=O)c3ccc(F)cc3)C2)CC1` (stereo in doubt; 28), for which the remaining at 10 min in [1] worked out at 88%; in data set [8], 69%. Also, the pEC50 was less than 5.12 in data set [2]; less than 4.40 in data set [3]; 5.74 in data set [4]; less than 4.40 in data set [5]; less than 5.12 in data set [6]. In [10], the “%max” value was 29%.
With `CS(=O)(=O)C1CCC(C(=O)N2CC[C@](c3ccc(C(F)(C(F)(F)F)C(F)(F)F)cc3)(S(=O)(=O)c3ccc(F)cc3)C2)CC1` (stereo in doubt; 29), in data set [1], the Stability is 100%. For the same compound, the pEC50 in [2] was less than 5.12; in data set [3] (jurkat), less than 4.40; in [4], less than 4.30; in data set [5] (jurkat), less than 4.40; in [6] it was less than 5.12. Besides, in data set [10], the “%max” value worked out at 6%.
Take `O=C(C1CCS(=O)(=O)C1)N1CC[C@](c2ccc(C(F)(C(F)(F)F)C(F)(F)F)cc2)(S(=O)(=O)c2ccc(F)cc2)C1` (stereo in doubt; 33): the pEC50 in data set [2] is less than 5.12; in data set [3] (jurkat), less than 4.40; in [4], 5.14; in [5] (jurkat) it was less than 4.40; in data set [6] it was less than 5.12. In data set [8], the Stability is given as 96%. Further, the “%max” value in [10] was 37%.

The term pEC50 denotes −log10 of the EC50, conventionally taken in molar units.
